Values of other authors, collected in patent publication US20210329915A1, “ABSORPTION PROMOTER, FLYING-INSECT PEST REPELLENT FRAGRANCE-CONTAINING COMPOSITION, AND FLYING-INSECT PEST REPELLENT PRODUCT” (DAINIHON JOCHUGIKU Co., Ltd., priority 2018, published 2021).

SMILES | Vapor pressure at 20° C.
OCCOCc1ccccc1 [benzyl glycol] | 2.7 Pa
CCCCOCCOCCO [diethylene glycol monobutyl ether] | 3 Pa
OCCOCCO [diethylene glycol] | 3 Pa
CC(O)CO (stereo not drawn) [propylene glycol] | 10.7 Pa
OCCOCCOCCO [triethylene glycol] | 1 Pa
CC(O)COC(C)COC(C)CO (stereo not drawn) [tripropylene glycol] | 0.67 Pa
